# Assay results as given in patent publication US20150031674A1, “SERINE/THREONINE KINASE INHIBITORS” (GENENTECH, INC., priority 2013, published 2015).
# Molecular target: human recombinant PAK1-KD protein (Homo sapiens, UniProt Q13153)
# Assay: PAK1-KD (Kinase Domain) IC50 Zlyte Assay (FRET peptide substrate phosphorylation)
# Details: Z'-LYTE, Biological Example 1
# human recombinant PAK1-KD protein, sequence (Q13153 270-521 limits assumed): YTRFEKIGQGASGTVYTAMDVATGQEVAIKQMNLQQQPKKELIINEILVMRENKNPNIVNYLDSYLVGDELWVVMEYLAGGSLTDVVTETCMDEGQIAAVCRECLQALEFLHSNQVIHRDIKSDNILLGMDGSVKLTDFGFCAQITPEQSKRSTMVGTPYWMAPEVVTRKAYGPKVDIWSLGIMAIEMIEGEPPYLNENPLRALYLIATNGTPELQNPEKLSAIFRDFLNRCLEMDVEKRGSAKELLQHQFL
row,SMILES,Ki
1,"CCNCC(O)Cn1c(=O)c(-c2ccc(-c3cncc(C)n3)cc2Cl)cc2cnc(NCC)nc21 (stereo not shown) [Example I-25, 6-[2-chloro-4-(6-methylpyrazin-2-yl)phenyl]-2-(ethylamino)-8-[3-(ethylamino)-2-hydroxy-propyl]pyrido[2,3-d]pyrimidin-7-one]",67.1 nM
2,"CCNc1ncc2cc(-c3ccc(-c4cncc(C)n4)cc3Cl)c(=O)n(CCN3CCN(C)CC3)c2n1 [Example I-27, 6-(2-Chloro-4-(6-methylpyrazin-2-yl)phenyl)-2-(ethylamino)-8-(2-(4-methylpiperazin-1-yl)ethyl)pyrido[2,3-d]pyrimidin-7(8H)-one]",47.6 nM
3,"Cc1cccc(-c2ccc(-c3cc4cnc(NC(C)C)nc4n(CC(=O)N4CCNCC4)c3=O)c(Cl)c2)n1 [Example I-35, 6-[2-Chloro-4-(6-methyl-2-pyridyl)phenyl]-2-(isopropylamino)-8-(2-oxo-2-piperazin-1-yl-ethyl)pyrido[2,3-d]pyrimidin-7-one]",4.2 nM
4,"CCNc1ncc2cc(-c3ccc(-c4cncc(C)n4)cc3Cl)c(=O)n(CCCCO)c2n1 [Example I-36, 6-[2-Chloro-4-(6-methylpyrazin-2-yl)phenyl]-2-(ethylamino)-8-(4-hydroxybutyl)pyrido[2,3-d]pyrimidin-7-one]",71.8 nM
5,"CNc1ncc2cc(-c3ccc(-c4cncc(C)n4)cc3Cl)c(=O)n(CCC3OCC(N)CO3)c2n1 (stereo not shown) [Example I-37, 8-[2-(5-amino-1,3-dioxan-2-yl)ethyl]-6-[2-chloro-4-(6-methylpyrazin-2-yl)phenyl]-2-(methylamino)pyrido[2,3-d]pyrimidin-7-one]",7.5 nM
6,"CNc1ncc2cc(-c3ccc(-c4cncc(C)n4)cc3Cl)c(=O)n(CCOC3CNC3)c2n1 [Example I-46, 8-[2-(azetidin-3-yloxy)ethyl]-6-[2-chloro-4-(6-methylpyrazin-2-yl)phenyl]-2-(methylamino)pyrido[2,3-d]pyrimidin-7-one]",13.9 nM
7,"Cc1cncc(-c2ccc(-c3cc4cnc(NCC(F)F)nc4n(CCOC4CNC4)c3=O)c(Cl)c2)n1 [Example I-47, 8-[2-(azetidin-3-yloxy)ethyl]-6-[2-chloro-4-(6-methylpyrazin-2-yl)phenyl]-2-(2,2-difluoroethylamino)pyrido[2,3-d]pyrimidin-7-one]",25.2 nM
8,"CCNc1ncc2cc(-c3ccc(-c4cncc(C)n4)cc3Cl)c(=O)n(CCCCC(N)=O)c2n1 [Example I-49, 5-[6-[2-Chloro-4-(6-methylpyrazin-2-yl)phenyl]-2-(ethylamino)-7-oxo-pyrido[2,3-d]pyrimidin-8-yl]pentanamide]",75.3 nM
9,"Cc1cncc(-c2ccc(-c3cc4cnc(NC5COC5)nc4n(CCCCO)c3=O)c(Cl)c2)n1 [Example I-50, 6-[2-Chloro-4-(6-methylpyrazin-2-yl)phenyl]-8-(4-hydroxybutyl)-2-(oxetan-3-ylamino)pyrido[2,3-d]pyrimidin-7-one]",45.6 nM
10,"CCNc1ncc2cc(-c3ccc(-c4cncc(C)n4)cc3Cl)c(=O)n(CC3(O)CCNCC3)c2n1 [Example I-54, 6-(2-Chloro-4-(6-methylpyrazin-2-yl)phenyl)-2-(ethylamino)-8-((4-hydroxypiperidin-4-yl)methyl)pyrido[2,3-d]pyrimidin-7(8H)-one]",107 nM
11,"CCNc1ncc2cc(-c3ccc(-c4cncc(C)n4)cc3Cl)c(=O)n(CCC3CCNC3)c2n1 (stereo not shown) [Example I-57, 6-(2-Chloro-4-(6-methylpyrazin-2-yl)phenyl)-2-(ethylamino)-8-(2-(pyrrolidin-3-yl)ethyl)pyrido[2,3-d]pyrimidin-7(8H)-one]",4.1 nM
12,"CCNc1ncc2cc(-c3ccc(-c4cncc(C)n4)cc3Cl)c(=O)n(C3COC4(CNC4)C3)c2n1 (stereo not shown) [Example I-58, 6-(2-Chloro-4-(6-methylpyrazin-2-yl)phenyl)-2-(ethylamino)-8-(5-oxa-2-azaspiro[3.4]octan-7-yl)pyrido[2,3-d]pyrimidin-7(8H)-one]",71.1 nM
13,"Cc1cccc(-c2ccc(-c3cc4cnc(NC5COC5)nc4n(CCOCCN)c3=O)c(Cl)c2)n1 [Example I-63, 8-[2-(2-Aminoethoxy)ethyl]-6-[2-chloro-4-(6-methyl-2-pyridyl)phenyl]-2-(oxetan-3-ylamino)pyrido[2,3-d]pyrimidin-7-one]",0.3 nM

# Continued by falling Ki, values first:
row,Ki,SMILES
1,137 nM,"CCNc1ncc2cc(-c3ccc(-c4cncc(C)n4)cc3Cl)c(=O)n(CC(=O)N3CCOCC3)c2n1 [Example I-26, 6-[2-chloro-4-(6-methylpyrazin-2-yl)phenyl]-2-(ethylamino)-8-(2-morpholino-2-oxo-ethyl)pyrido[2,3-d]pyrimidin-7-one]"
2,136 nM,"CCNc1ncc2cc(-c3ccc(-c4cncc(C)n4)cc3Cl)c(=O)n(CCN3CCN(C4COC4)CC3)c2n1 [Example I-23, 6-(2-chloro-4-(6-methylpyrazin-2-yl)phenyl)-2-(ethylamino)-8-(2-(4-(oxetan-3-yl)piperazin-1-yl)ethyl)pyrido[2,3-d]pyrimidin-7(8H)-one]"
3,96.2 nM,"CCNc1ncc2cc(-c3ccc(-c4cncc(C)n4)cc3Cl)c(=O)n(CCC3CCNC(=O)C3)c2n1 (stereo not shown) [Example I-53, 6-[2-chloro-4-(6-methylpyrazin-2-yl)phenyl]-2-(ethylamino)-8-[2-(2-oxo-4-piperidyl)ethyl]pyrido[2,3-d]pyrimidin-7-one]"
4,77.8 nM,"Cc1cncc(-c2ccc(-c3cc4cnc(NC5COC5)nc4n(CCOCCO)c3=O)c(Cl)c2)n1 [Example I-67, 6-[2-Chloro-4-(6-methylpyrazin-2-yl)phenyl]-8-[2-(2-hydroxyethoxy)ethyl]-2-(oxetan-3-ylamino)pyrido[2,3-d]pyrimidin-7-one]"
5,40 nM,"CCNc1ncc2cc(-c3ccc(-c4cncc(C)n4)cc3Cl)c(=O)n(CC3CCN(CCO)CC3)c2n1 [Example I-39, 6-(2-Chloro-4-(6-methylpyrazin-2-yl)phenyl)-2-(ethylamino)-8-((1-(2-hydroxyethyl)piperidin-4-yl)methyl)pyrido[2,3-d]pyrimidin-7(8H)-one]"
6,31 nM,"Cc1cncc(-c2ccc(-c3cc4cnc(NC5(C)COC5)nc4n(CCCC(N)=O)c3=O)c(Cl)c2)n1 [Example I-41, 4-[6-[2-Chloro-4-(6-methylpyrazin-2-yl)phenyl]-2-[(3-methyloxetan-3-yl)amino]-7-oxo-pyrido[2,3-d]pyrimidin-8-yl]butanamide]"
7,29.8 nM,"Cc1cncc(-c2ccc(-c3cc4cnc(NC5COC5)nc4n(CCCC(N)=O)c3=O)c(Cl)c2)n1 [Example I-55, 4-[6-[2-Chloro-4-(6-methylpyrazin-2-yl)phenyl]-2-(oxetan-3-ylamino)-7-oxo-pyrido[2,3-d]pyrimidin-8-yl]butanamide]"
8,27.3 nM,"CCNc1ncc2cc(-c3ccc(-c4cncc(C)n4)cc3Cl)c(=O)n(CC(O)CN)c2n1 (stereo not shown) [Example I-24, 8-(3-amino-2-hydroxy-propyl)-6-[2-chloro-4-(6-methylpyrazin-2-yl)phenyl]-2-(ethylamino)pyrido[2,3-d]pyrimidin-7-one]"
9,25.7 nM,"CCNc1ncc2cc(-c3ccc(-c4cncc(C)n4)cc3Cl)c(=O)n(C3CCN(C(=O)CN)C3)c2n1 (stereo not shown) [Example I-28, 8-(1-(2-Aminoacetyl)pyrrolidin-3-yl)-6-(2-chloro-4-(6-methylpyrazin-2-yl)phenyl)-2-(ethylamino)pyrido[2,3-d]pyrimidin-7(8H)-one]"
10,24.4 nM,"CCNc1ncc2cc(-c3ccc(-c4cncc(C)n4)cc3Cl)c(=O)n(C3COC4(CCNCC4)C3)c2n1 (stereo not shown) [Example I-59, 6-(2-Chloro-4-(6-methylpyrazin-2-yl)phenyl)-2-(ethylamino)-8-(1-oxa-8-azaspiro[4.5]decan-3-yl)pyrido[2,3-d]pyrimidin-7(8H)-one]"
11,17.1 nM,"CCNc1ncc2cc(-c3ccc(-c4cncc(C)n4)cc3Cl)c(=O)n(C3CCN(C(=O)CN)CC3)c2n1 [Example I-29, 8-(1-(2-Aminoacetyl)piperidin-4-yl)-6-(2-chloro-4-(6-methylpyrazin-2-yl)phenyl)-2-(ethylamino)pyrido[2,3-d]pyrimidin-7(8H)-one]"
12,14.5 nM,"CCNc1ncc2cc(-c3ccc(-c4cncc(C)n4)cc3Cl)c(=O)n(CC[C@@H]3[C@H]4CNC[C@@H]34)c2n1 [Example I-65, 8-(2-((1R,5S,6s)-3-Azabicyclo[3.1.0]hexan-6-yl)ethyl)-6-(2-chloro-4-(6-methylpyrazin-2-yl)phenyl)-2-(ethylamino)pyrido[2,3-d]pyrimidin-7(8H)-one]"
13,9.9 nM,"CCNc1ncc2cc(-c3ccc(-c4cccc(C)n4)cc3Cl)c(=O)n(CCOC3CNC3)c2n1 [Example I-30, 8-[2-(azetidin-3-yloxy)ethyl]-6-[2-chloro-4-(6-methyl-2-pyridyl)phenyl]-2-(ethylamino)pyrido[2,3-d]pyrimidin-7-one]"
14,4 nM,"CCNc1ncc2cc(-c3ccc(-c4cccc(C)n4)cc3Cl)c(=O)n(CC(=O)N3CCNCC3)c2n1 [Example I-34, 6-[2-Chloro-4-(6-methyl-2-pyridyl)phenyl]-2-(ethylamino)-8-(2-oxo-2-piperazin-1-yl-ethyl)pyrido[2,3-d]pyrimidin-7-one]"
15,1.1 nM,Cc1cccc(-c2ccc(-c3cc4cnc(NC(C)C)nc4n(CCOCCN)c3=O)c(Cl)c2)n1 [Example I-60]
16,0.9 nM,"CCNc1ncc2cc(-c3ccc(-c4cccc(C)n4)cc3Cl)c(=O)n(CCN3CCNCC3)c2n1 [Example I-66, 6-(2-Chloro-4-(6-methylpyridin-2-yl)phenyl)-2-(ethylamino)-8-(2-(piperazin-1-yl)ethyl)pyrido[2,3-d]pyrimidin-7(8H)-one]"
17,0.5 nM,"Cc1cccc(-c2ccc(-c3cc4cnc(NC(C)C)nc4n(C[C@H]4CC[C@H](N)CC4)c3=O)c(Cl)c2)n1 [Example I-32, 8-[(4-aminocyclohexyl)methyl]-6-[2-chloro-4-(6-methyl-2-pyridyl)phenyl]-2-(isopropylamino)pyrido[2,3-d]pyrimidin-7-one]"
18,0.5 nM,"Cc1cccc(-c2ccc(-c3cc4cnc(NC5COC5)nc4n(C[C@H]4CC[C@H](N)CC4)c3=O)c(Cl)c2)n1 [Example I-33, 8-(((1r,4r)-4-aminocyclohexyl)methyl)-6-(2-chloro-4-(6-methylpyridin-2-yl)phenyl)-2-(oxetan-3-ylamino)pyrido[2,3-d]pyrimidin-7(8H)-one]"
